Data on eight compounds can be found in US20050137194A1, “Combination of selected opioids with other active compounds for treatment of urinary incontinence” (Gruenenthal GmbH, priority 2002, published 2005).

Structures are written as SMILES. Marks after values point to notes of the source that are not given here.

In this test the test system is naive, female Sprague-Dawley rats. In words: Cystometry test system on conscious naive rats. Conditions: for action on bladder regulation (in words): conscious naive rats, i.v.
[1] abbreviates: 1.0 mg/kg iv, action maximum, mean of 3 micturition cycles.

On to `CCC(O)(c1cccc(O)c1)C(C)CN(C)C.Cl` (racemic) [Compound 7, (2RS,3RS)-3-(3-dimethylamino-1-ethyl-1-hydroxy-2-methyl-propyl)-phenol, hydrochloride], for which, where the note is “0.3 mg/kg iv”, the “BC bladder capacity, change relative to the pre-value” was “+32% *”; the “ICI intercontraction interval, change relative to the pre-value” is “+28% *”; the “TP threshold pressure, change relative to the pre-value” was “+95% **”.

For `C[C@H](CN(C)C)[C@@](C)(O)c1cccc(O)c1.Cl` (racemic) [Compound 8, (1RS,2RS)-3-(3-dimethylamino-1-hydroxy-1,2-dimethyl-propyl)-phenol, hydrochloride], under setting [1], the “BC bladder capacity, change relative to the pre-value” is “+7%”; the “ICI intercontraction interval, change relative to the pre-value” was “+14.4%”; the “TP threshold pressure, change relative to the pre-value” is “+60% **”.

Turning to `COc1cccc([C@@]2(O)C[C@H](O)CC[C@@H]2CN(C)C)c1.Cl` (racemic) [Compound 24, (1RS,3RS,6RS)-6-dimethylaminomethyl-1-(3-methoxy-phenyl)-cyclohexane-1,3-diol, hydrochloride], under setting [1], the “BC bladder capacity, change relative to the pre-value” is reported as −8.0%; the “ICI intercontraction interval, change relative to the pre-value” is listed as −15% **; the “TP threshold pressure, change relative to the pre-value” is on record as “+44.0% ***”. In addition, for the setting “3.0 mg/kg iv”, the “BC bladder capacity, change relative to the pre-value” was −16.0% *; the “ICI interconnection interval, change relative to the pre-value” is reported as −16% *; the “TP threshold pressure, change relative to the pre-value” is on record as “+94.0% **”. For the same compound, under “5.0 mg/kg iv”, the “BC bladder capacity, change relative to the pre-value” is given as −26.0% *; the “ICI interconnection interval, change relative to the pre-value” is reported as −21.2%; the “TP threshold pressure, change relative to the pre-value” is on record as “+69.0% *”.

Regarding `CN(C)C[C@H]1CC[C@@H](O)C[C@]1(O)c1cccc(O)c1.Cl` (racemic) [Compound 26, (1RS,3RS,6RS)-6-dimethylaminomethyl-1-(3-hydroxy-phenyl)-cyclohexane-1,3-diol, hydrochloride], for the setting “3.0 mg/kg iv”, the “BC bladder capacity, change relative to the pre-value” is given as “+29.0% *”; the “ICI interconnection interval, change relative to the pre-value” is listed as “+27.0% *”; the “TP threshold pressure, change relative to the pre-value” is recorded as “+86.0% ***”.

`CC[C@](O)(c1cccc(OC)c1)[C@H](C)CN(C)C.Cl` [Compound 2, (+)-(2R,3R)-1-dimethylamino-3-(3-methoxy-phenyl)-2-methyl-pentan-3-ol, hydrochloride]: the “action on bladder regulation (in words)” value was “effectively active”.

Turning to `C[C@H](CN(C)C)[C@@](C)(O)c1cccc(O)c1.Cl` [Compound 9, (+)-(1R,2R)-3-(3-dimethylamino-1-hydroxy-1,2-dimethyl-propyl)-phenol, hydrochloride], where the note is “0.5 mg/kg iv”, the “BC bladder capacity, change relative to the pre-value” is “+50% **”; the “ICI intercontraction interval, change relative to the pre-value” was “+21% *”; the “TP threshold pressure, change relative to the pre-value” is listed as “+56% **”.

Turning to `CC[C@@](O)(c1cccc(OC)c1)[C@@H](C)CN(C)C.Cl` [Compound 21, (−)-(2S,3S)-1-dimethylamino-3-(3-methoxy-phenyl)-2-methyl-pentan-3-ol, hydrochloride], the “action on bladder regulation (in words)” value is recorded as “does not contribute to the action”.

In the case of `COc1cccc([C@@]2(O)C[C@H](O)CC[C@@H]2CN(C)C)c1.Cl` [Compound 25, (+)-(1R,3R,6R)-6-dimethylaminomethyl-1-(3-methoxy-phenyl)-cyclohexane-1,3-diol, hydrochloride], under “1.5 mg/kg iv”, the “BC bladder capacity, change relative to the pre-value” is given as −14.0% *; the “ICI interconnection interval, change relative to the pre-value” is on record as −9.0 * %; the “TP threshold pressure, change relative to the pre-value” was “+62.0% *”.
